Experimental data published in US9980894B2, “Cosmetic compositions comprising hyaluronan biosynthesis promoting agents” (Symrise AG, priority 2012, dated 2018).
Entries after “also recorded” stand apart in the source; their conditions may differ. Like-named read-outs stand apart in the source and are kept apart here.

Key:
[1] = system: Normal Human Dermal Fibroblasts (NHDF); experiment: Cellular in vitro hyaluronan assay on normal human dermal fibroblasts (hyaluronic acid ELISA); format: cell-based; conditions: for Mean hyaluronan stimulation compared with positive control TGF-b1: cassione 0.25 μM, [6]-paradol 0.025 μM versus TGF-b1 1 ng/ml; for Effect on hyaluronan production of dermal fibroblasts (in words): in vitro; for Mean hyaluron stimulation vs. control: 16 h
Experimental: (§1) NHDF are seeded into a 24 well plate at a concentration of 1.5×10^4 cells/well. Cells are incubated at 37° C. and 5% CO2 in fibroblast medium containing 10% fetal bovine serum (FBS) until they are 70-80% confluent. Then the medium is withdrawn, cells are washed with PBS and the test compounds dissolved in fibroblast medium without FBS are added. After incubation for 16 h in the presence of the test compounds, the culture medium is collected and hyaluronan is determined by a hyaluronic acid ELISA detection kit (Corgenix) which is performed according to the supplier instructions. The stimulation of the hyaluronan biosynthesis in the presence of the test compounds is calculated according to the following equation: Hyaluronan stimulation [%]=([…]×100)−100 with • HAcontrol=hyaluronan content in ng/ml of the medium from cells treated with control • HAtest compound=hyaluronan content in ng/ml of the medium from cells treated with test compound

[2] = system: B16 melanoma cell line; conditions: cited from earlier work
[3] = system: Normal Human Epidermal Keratinocytes (NHEK); experiment: Cellular in vitro hyaluronan assay on normal human epidermal keratinocytes (hyaluronic acid ELISA); format: cell-based; conditions: for Mean hyaluronan stimulation, fold less than that of the positive control retinol: compounds at 0.25 μM versus retinol at 0.1 μM; for Effect on hyaluronan production of epidermal keratinocytes (in words): in vitro; for Mean hyaluron stimulation vs. control: 16 h
Experimental: as §1, with “NHEK” for “NHDF”, “2.5×10^4” for “1.5×10^4”, “keratinocyte” for “fibroblast”, “medium” for “medium containing 10% fetal bovine serum (FBS)”, “medium” for “medium without FBS”

[4] = system: ex vivo human skin; experiment: Hyaluronan assay on ex vivo human skin (Alcain blue staining, image analysis); format: cell-based
Description: Human skin obtained from plastic surgery is cut into pieces of approximately 7×3 mm (diameter×thickness). 6 skin samples are used for each treatment. The skin samples are placed on a cotton pad soaked with culture medium (modified Williams'E medium). Control and hydrodispersion gels (as described in more detail below) without (=placebo) and with the test compound, respectively, are applied topically on day 0 and the application is renewed on day 1. On day 2, skin samples are fixed, histological sections are prepared and subsequent histochemically stained by Alcain blue. After that, pictures are taken from each section and dermal and epidermal hyaluronan is quantified by image analysis of a selected region of interest. To do so, the histochemical staining is divided in three different color channels with an algorithm specific for Alcain blue staining and the distribution and intensity of the blue colour channel which is specific for hyaluronan is analysed. Hyaluronan stimulation [%]=([…]×100)−100 with • HAcontrol=hyaluronan score of the skin sample treated with control • HAtest compound=hyaluron score of the skin sample treated with test compound
The hydrodispersion gels used had the composition as set out in Table 4: […]

[5] = listed as compound of formula IV
[6] = 0.0001% [6]-paradol containing gel versus placebo gel
[7] = 0.0001 % in hydrodispersion gel, topical on day 0 and day 1, analysed day 2

In the case of `CC(=O)CCc1ccc2c(c1)OCO2` [Cassione, 4-(3,4-methylendioxyphenyl)-2-butanone], the “Mean hyaluronan stimulation compared with positive control TGF-b1” value [1] is reported as “comparable”, the “Effect on hyaluronan production of dermal fibroblasts (in words)” value (shortened to “Effect … of dermal fibroblasts (in words)”) [1] is reported as “enhance the hyaluronan production; also recorded: potently enhance” and the “Mean hyaluron stimulation vs. control” value ([1]; test concentration 0.25 μM) is reported as 41.0 ± 6.0%. The “inhibition (skin lightening, in vitro efficacy)” value ([2]; 26 μM (5 μg/ml)) was 15%, the “inhibition (skin lightening, in vitro efficacy)” value ([2]; 520 μM (100 μg/ml)) was 87% and the “Mean hyaluronan stimulation, fold less than that of the positive control retinol” value [3] was 1.9 fold. For the same molecule, the “Effect on hyaluronan production of epidermal keratinocytes (in words)” value (“Effect … of epidermal keratinocytes (in words)” for short) [3] was “enhance the hyaluronan production; also recorded: potently enhance” and the “Mean hyaluron stimulation vs. control” value ([3]; test concentration 0.25 μM) was 37.0 ± 8.0%.
With `COc1cc(CCC(=O)c2ccc(O)cc2)ccc1O` [Compound of formula IV, 3-(4-Hydroxy-3-methoxyphenyl)-1-(4-hydroxyphenyl)-1-propanone] the “Effect … of dermal fibroblasts (in words)” value [1, 5] was “no stimulatory activity”, the “Effect … of dermal fibroblasts (in words)” value ([1]; listed as formula IV) was “no direct stimulating effect on dermal fibroblasts” and the “Mean hyaluron stimulation vs. control” value ([1]; test concentration 0.25 μM) was −5.5 ± 2.5%. For the same molecule, the “Mean hyaluronan stimulation, fold less than that of the positive control retinol” value [3] was 1.4 fold, the “Effect … of epidermal keratinocytes (in words)” value [3, 5] was “enhance the hyaluronan production” and the “Effect … of epidermal keratinocytes (in words)” value ([3]; listed as formula IV) was “powerfully upregulates HA synthesis”. The “Mean hyaluron stimulation vs. control” value ([3]; test concentration 0.25 μM) was 50.5 ± 26.5%.
For `CC1=C(/C=C/C(C)=C/C=C/C(C)=C/C(=O)O)C(C)(C)CCC1` [Retinoic acid, reference compound], the “Mean hyaluron stimulation vs. control” value ([1]; test concentration 0.1 μM) was −13.0 ± 18.0% and the “Mean hyaluron stimulation vs. control” value ([3]; test concentration 0.1 μM) was 116.1 ± 37.3%.
For `CC1=C(/C=C/C(C)=C/C=C/C(C)=C/CO)C(C)(C)CCC1` [Retinol, reference compound], the “Effect … of dermal fibroblasts (in words)” value [1] was “no stimulatory activity”, the “Mean hyaluron stimulation vs. control” value ([1]; test concentration 0.1 μM) was 2.0% and the “Mean hyaluron stimulation vs. control” value ([3]; test concentration 0.1 μM) was 70.8 ± 33.3%.
In the case of `COc1cc(CCC(C)=O)ccc1O` [Zingerone, 4-(4-hydroxy-3-methoxyphenyl)-2-butanone], the “Effect … of dermal fibroblasts (in words)” value [1] is reported as “enhance the hyaluronan production; also recorded: increases HA biosynthesis”, the “Mean hyaluron stimulation vs. control” value ([1]; test concentration 0.25 μM) is reported as 15.0 ± 5.3% and the “Mean hyaluronan stimulation, fold less than that of the positive control retinol” value [3] is reported as 1.6 fold. For the same molecule, the “Effect … of epidermal keratinocytes (in words)” value [3] was “enhance the hyaluronan production; also recorded: more pronounced effect on epidermal keratinocytes” and the “Mean hyaluron stimulation vs. control” value ([3]; test concentration 0.25 μM) was 45.0 ± 24.7%.
In the case of `CCCCCCCC(=O)CCc1ccc(O)c(OC)c1` [[6]-Paradol, Heptyl 4-hydroxy-3-methoxyphenethyl ketone], the “Mean HA stimulation versus placebo, dermal HA” value [4, 6] is reported as 250%, the “Mean HA stimulation versus placebo, epidermal HA” value [4, 6] is reported as 124% and the “Mean hyaluronan stimulation vs. control [%] Dermal” value [4, 7] is reported as 124%. For the same molecule, the “Mean hyaluronan stimulation vs. control [%] Epidermal” value [4, 7] was 51%, the “Effect on dermal and epidermal hyaluronan level of ex vivo human skin (in words)” value ([4]; 0.0001%, 2 days of topical treatment) was “significantly stimulates” and the “Mean hyaluronan stimulation compared with positive control TGF-b1” value [1] was “comparable”. For the same molecule, the “Effect … of dermal fibroblasts (in words)” value [1] was “enhance the hyaluronan production; also recorded: potently stimulates”, the “Mean hyaluron stimulation vs. control” value ([1]; test concentration 0.025 μM) was 38.0 ± 9.0% and the “Effect … of epidermal keratinocytes (in words)” value [3] was “no stimulatory activity; also recorded: without any direct stimulating effect on epidermal keratinocytes”. For the same molecule, the “Mean hyaluron stimulation vs. control” value ([3]; test concentration 0.025 μM) was −3.0 ± 3.0%.
For “TGF-b1: Transforming growth factor (TGF)-beta1, positive control known to increase HA synthesis in dermal fibroblasts”, the “Mean hyaluron stimulation vs. control” value ([1]; test concentration 1 ng/ml) was 39.7 ± 13.9%, the “Effect … of epidermal keratinocytes (in words)” value [3] was “no stimulatory activity” and the “Mean hyaluron stimulation vs. control” value ([3]; test concentration 1 ng/ml) was −31.0%.
